From US20100055147A1, “ANGIOTENSIN (1-7) ELUTING STENT” (priority 2006, published 2010)

Legend:
[1] = system: neointima formation in the rat abdominal aorta; experiment: Neointima area in stented rat abdominal aorta (histology); assay type: in vivo
Source text: (§1) Specific pathogen-free, male Wistar rats (Harlan, Horst, Netherlands) were fed standard rat chow and water ad libitum. For Ang-(1-7) administration by minipump, 28 rats were used. The animals were anaesthetised with O2, N2O and isoflurane (Abbot B.V., Hoofddorp, Netherlands). In 20 animals, bare metal stents (Medtronic Driver® 2.5×8 mm stents) were placed in the abdominal aorta. Upon stent placement, osmotic minipumps (Model 2004, Alzet, Charles River, Maastricht, The Netherlands) were implanted subcutaneously for drug delivery via a catheter in the jugular vein. The pumps infused either Ang-(1-7) (Bachem, Well am Rhein, Germany) (24 μg/kg/h) (n=10) or saline (0.25 μl/h) (n=10). Furthermore, a control group underwent sham surgery (n=8: surgery identical to stent groups, but without balloon insertion and stenting), and received an osmotic minipump releasing saline. Treatment continued for four weeks. Five rats were excluded because of technical failure (aortic leakage or minipump failure) resulting in n=7 for Ang-(1-7) infusion, n=10 for saline infusion, and n-6 for sham-operated rats. […]
To determine if Ang-(1-7) infusion by minipump or elution from the stent reduced neointima formation, neointima area was measured in animals which received Ang-(1-7) either by stent or minipump (Table 1).

[2] = system: rat bone marrow mononuclear cells (MNC) and endothelial progenitor cells (EPC); experiment: Cultured rat bone marrow mononuclear cells (MNC) and endothelial progenitor cells (EPC); assay type: cell-based; conditions: 10^−7 mol/L, 7 days of culture
Protocol: Five rats were sacrificed by exsanguination under O2, N2O and isoflurane anaesthesia. Bone marrow was isolated from the left and right femurs by flushing the bone marrow cavity with sterile phosphate-buffered saline at room temperature (PBS, Gibco, Invitrogen, Breda, The Netherlands). From each individual rat, MNC were obtained by density gradient centrifugation at 2000 rpm (MSE Mistral 3000i, UK) for 20 minutes at room temperature according to manufacturer's instruction (Cedarlane Laboratories ltd., Hornby, Canada). Cells from individual rats were then resuspended in endothelial cell basal medium-2 (EGM; Cambrex Bioproducts, Clonetics, New Jersey, USA) containing supplemented 2% fetal bovine serum and EGM-2 SingleQuots (Clonetics). At day 1, 5×10^5 cells/well were seeded in 1% gelatin (225 bloom, Sigma-Aldrich, Zwijndrecht, The Netherlands) precoated 96-well culture plates (Costar, Corning, N.Y., USA) at 37° C. in a humidified incubator in the presence of 5% CO2. At day 3 of culture, medium with non-attached cells was removed, and replaced by fresh culture medium containing Ang-(1-7) at 10^−7 mol/L with or without antagonists (treatment medium). Next, cells were grown for 7 days, changing treatment medium at day 5 and day 7. At day 9, treatment medium was removed and culture medium supplemented with 10 μg/mL acetylated low-density lipoprotein (Dil-Ac-LDL) was added to the cells for 4 h. […]
Detection of staining was performed with the use of fluorescence microscopy (Leica, Wetzlar, Germany) at a magnification of 200×. […] Cells were quantified with the use of ImagePro software (Media Cybernetics, Silver Spring, USA). In the occasion that the presence of cell clusters hindered proper digital quantification, cell numbers were assessed by hand. […]
To this purpose MNC were isolated from rat bone marrow and cultured for 2 days to allow attachment. […] To determine if Ang-(1-7) preferentially stimulated EPC, the number of EPC was expressed as a percentage of the total population of MNC (FIG. 6B). […]

iliac artery = experiment: Small vessel myograph, iliac artery rings four weeks after stenting; assay type: in vivo, rat; conditions: FIG. 3
Source text: as §1, with “weeks.” for “weeks. Five rats were excluded because of technical failure (aortic leakage or minipump failure) resulting in n=7 for Ang-(1-7) infusion, n=10 for saline infusion, and n-6 for sham-operated rats.”
(§2) Iliac and brachial arteries were prepared under a dissection microscope in Krebs solution that was kept at 4° C. […] After this, vessels were brought to tension in 20 μm steps until reaching a diameter corresponding to 100 mmHg transmural pressure (L100, calculated by exponential curve fitting with Excel software). […] All responses were recorded in grams tension. The responses to MeCh were expressed as the percent decrease in PE EC70 responses.

[3] = system: isolated thoracic aorta rings; experiment: Organ bath, isolated thoracic aortic rings four weeks after stenting; assay type: in vivo, rat; conditions: minipump infusion, FIG. 5
Source text: Specific pathogen-free, male Wistar rats (Harlan, Horst, Netherlands) were fed standard rat chow and water ad libitum. For Ang-(1-7) administration by minipump, 28 rats were used. The animals were anaesthetised with O2, N2O and isoflurane (Abbot B.V., Hoofddorp, Netherlands). In 20 animals, bare metal stents (Medtronic Driver® 2.5×8 mm stents) were placed in the abdominal aorta. Upon stent placement, osmotic minipumps (Model 2004, Alzet, Charles River, Maastricht, The Netherlands) were implanted subcutaneously for drug delivery via a catheter in the jugular vein. The pumps infused either Ang-(1-7) (Bachem, Well am Rhein, Germany) (24 μg/kg/h) (n=10) or saline (0.25 μl/h) (n=10). Furthermore, a control group underwent sham surgery (n=8: surgery identical to stent groups, but without balloon insertion and stenting), and received an osmotic minipump releasing saline. Treatment continued for four weeks. Five rats were excluded because of technical failure (aortic leakage or minipump failure) resulting in n=7 for Ang-(1-7) infusion, n=10 for saline infusion, and n-6 for sham-operated rats.
To test the effect of Ang-(1-7)-eluting stents (see Example 1 for details), 36 rats underwent placement of three types of stents into the abdominal aorta, bare metal stents, stents coated with polymer alone, or stents coated with polymer containing approximately 90 μg Ang-(1-7). Six rats were excluded because of technical failure during surgery, and three stents could not be processed due to incomplete polymerisation of embedding plastic (see below) leaving n=9 for bare metal stent, n=10 for stent with polymer only and n=8 for stent with polymer+Ang-(1-7).
Twenty-eight days after stent implantation, the animals were anaesthetised with O2, N2O and isoflurane, and systemically heparinized with 500 IE intravenously (Leo Pharma B.V., Breda, The Netherlands). The stented abdominal aortas were harvested, fixed, embedded in methylmethacrylate, sectioned and stained for histological analysis as described previously. […]
The stented aortas were evaluated in organ bath studies with isolated vascular rings. […] The endothelium-dependent vasodilation was assessed by a cumulative dose of metacholine (MeCh; 10 nM to 0.1 mM). […] The NO-dependent vasodilation to metacholine was calculated, by subtraction of the vasodilation in the presence of L-NMMA from the total vasodilation. The PG-dependent vasodilation in response to MeCh was calculated by subtraction of the vasodilation in the presence of L-NMMA and indomethacin from the vasodilation in the presence of L-NMMA. The EDHF-dependent vasodilation was determined by the vasodilation to metacholine in the presence of L-NMMA and indomethacin. […]

brachial artery = experiment: Small vessel myograph, brachial artery rings four weeks after stenting; assay type: in vivo, rat; conditions: minipump infusion
Source text: as §1, with “weeks.” for “weeks. Five rats were excluded because of technical failure (aortic leakage or minipump failure) resulting in n=7 for Ang-(1-7) infusion, n=10 for saline infusion, and n-6 for sham-operated rats.”
as §2

angiotensin-(1-7) (DRVYIHP; listed as Homo sapiens) [Ang-(1-7)]
neointimal formation (in words) ([1]; infusion using a minipump): reduction
Neointima area NIA ([1]; minipump infusion 24 μg/kg/h for four weeks, bare metal stent in rat abdominal aorta, p < 0.05 vs. saline): 0.51 ± 0.05 mm²
number of EPC ([2]; FIG. 6A): increased
number of MNC ([2]; FIG. 6A): increased
relative number of EPC (percentage of total MNC) ([2]; FIG. 6B): increased
vasodilation upon stimulation with metacholine (iliac artery; chronic infusion by minipump, iliac artery (downstream)): increased
vasoconstrictions (phenylephrine) (iliac artery; minipump infusion, iliac artery): remained equal
EDHF contribution to metacholine vasodilation ([3]; thoracic aorta): stimulated
NO release (contribution to metacholine vasodilation) ([3]; thoracic aorta): did not alter
PG contribution to metacholine vasodilation ([3]; thoracic aorta): stimulated
Emax of total response on metacholine ([3]; stented group showed 40% decrease): full recovery
vasodilator function (brachial artery; brachial artery (remote), FIG. 4): improved
vasoconstrictor responses to phenylephrine (brachial artery; brachial artery, to the level of sham-operated rats): decreased
